Where two headings read alike, the source gives them in different places.

The subject of test [1] is monoclonal F12-3C8 antibody (anti-petroleum). The test is described as follows: Cross-reactivity of immunoassay relative to m-xylene. It counts as binding, mouse (Balb/c). The note with it: for ED50: calculated from a dose response curve. As to the method:
(§1) Female Balb/c mice received a primary subcutaneous immunization with 50 ug of xylene derivatized to bovine serum albumin in adjuvant (MPL+TDM Emulsion, RIBI Immunochem Research, Inc., Hamilton, Mont.). Subcutaneous secondary injections (25 ug) were given at day 21, 35, and then monthly. The production of monoclonal antibodies was performed according to conventional procedures (see Milstein, Cancer, 49:1953-1957 (1982)). Hybridoma cultures producing monoclonal antibodies recognizing free hapten by EIA were cloned by limiting dilution.
(§2) Antibody coated tubes were prepared by passively coating polystyrene (12×75 mm, NUNC) tubes with the monoclonal F12-3C8 antibody diluted in PBS and incubating overnight.
(§3) 10 g of a soil sample were placed in an extraction vial containing 20 mL of methanol and 5 steel pellets (6 mm) and the vial and its contents shaken for 1 minute to disperse the soil particles and extract the petroleum hydrocarbons. The sample was then filtered to clarify the sample using a filter of glass fiber and 0.45μTeflon. 45 uL of the clarified filtrate sample was mixed with 955 μl of 10 mM PBS (pH=7.4) and the resulting mixture added to lyophilized enzyme conjugate reagent (0.3 μg) and mixed. At the same time, 2×45 uL of the xylene standard are similarly treated. The sample and the two standards were then poured into three identical antibody coated tubes, respectively, and the resulting solution mixed. The resulting solution was incubated for 10 minutes at ambient temperature and then washed 4× with a wash buffer (detergent-saline solution). 250 uL of tetramethylbenzidene solution (KP Laboratories, Cat. No. 50-76-02) was added along with 250 uL of hydrogen peroxide solution (KPL, Cat. No. 50-65-02) and the resultant solution mixed. After incubating for 2.5 minutes the color development reaction was stopped with 250 uL of stop solution (1M sulfuric acid).
The ED50 value was calculated from a dose response curve.
Percent CrossReactivity = ((mXylene ED50 /Compound ED50) .times

The test system is the same in test [2]. The test can be described thus: Cross-reactivity of immunoassay: concentration needed to provide a positive result. Particulars: test compounds dissolved in methanol. It counts as binding, mouse (Balb/c). The procedure: as §1, with “dilution. Clone F12-3C8 was selected based upon specificity, and interference criteria.” for “dilution.”
as §2, §3
Cross-reactivity of the immunoassay of the present
invention. The test compounds were dissolved in
methanol and assayed. The values listed are the
concentration of compound needed to provide a […]

Where [3] appears, read: (m-Xylene ED50 / Compound ED50) x 100, m-xylene = 100%.

As for `c1ccc2ccccc2c1` [Naphthalene], in test [1] (setting [3]), the “% Cross-Reactivity” value is reported as 4,390%. In addition, in test [1] (10 min), the ED50 is 11 ppb. Further, the Conc. where positive in test [2] was found to be 2.5 ppm.

As for `Cc1ccccc1` [Toluene], in test [1] (setting [3]), the “% Cross-Reactivity” value turned out to be 22%. Besides, the ED50 in test [1] (10 min) is listed as 2,210 ppb. The Conc. where positive in test [2] amounted to 300 ppm.

In the case of `Cc1ccccc1C` [o-Xylene], the “% Cross-Reactivity” value in test [1] (setting [3]) was 271%. Also, in test [1] (10 min), the ED50 was 178 ppb.

Take `CCCCCCCC` [n-Octane]: in test [1] (setting [3]), the “% Cross-Reactivity” value came to 11%. The ED50 in test [1] (10 min) was 4,589 ppb.

Regarding `Cc1cccc(C)c1` [m-Xylene, reference compound], the “% Cross-Reactivity” value in test [1] (setting [3]) stood at 100%. Further, in test [1] (10 min), the ED50 is 483 ppb.

Turning to `CCCCCC` [Hexane], the Conc. where positive in test [2] is on record as 300 ppm.

Consider `CCCCCCC` [n-Heptane], for which the “% Cross-Reactivity” value in test [1] (setting [3]) worked out at 30%. In test [1] (10 min), the ED50 is on record as 1,669 ppb.

`c1cc2c3c(cccc3c1)CC2` [Acenaphthene]: the “% Cross-Reactivity” value in test [1] (setting [3]) is 5,378%. Moreover, in test [1] (10 min), the ED50 is given as 9 ppb. The Conc. where positive in test [2] is on record as 2.5 ppm.

Regarding `CCCCCCCCCCC` [n-Undecane], the “% Cross-Reactivity” value in test [1] (setting [3]) is reported as less than 1%. The ED50 entry in test [1] is listed as “Negative”.

Regarding `CCCCCCCCCCCCC` [n-Tridecane], the “% Cross-Reactivity” value in test [1] (setting [3]) is on record as less than 1%. The ED50 entry in test [1] is “Negative”.

`CCCC(C)C` [2-Methylpentane]: the “% Cross-Reactivity” value in test [1] (setting [3]) is given as 57%. Further, in test [1] (10 min), the ED50 was 851 ppb.

Xylene: in test [2], the Conc. where positive stood at 100 ppm.

With `Cc1ccc(C)cc1` [p-Xylene], in test [1] (setting [3]), the “% Cross-Reactivity” value was found to be 38%. Moreover, the ED50 in test [1] (10 min) is 1,255 ppb.

In test [2], `CC(C)CC(C)(C)C` [Isooctane] gave a Conc. where positive of 100 ppm.

With `c1ccccc1` [Benzene], in test [1], the “% Cross-Reactivity” value is listed as less than 1%. Besides, the Conc. where positive in test [2] is > 10,000 ppm.

In the case of `c1ccc2c(c1)ccc1ccccc12` [Phenanthrene], the “% Cross-Reactivity” value in test [1] (setting [3]) came to 848%. Moreover, in test [1] (10 min), the ED50 was 57 ppb. The Conc. where positive in test [2] is reported as 10 ppm.

As for `CC(C)CC(C)(C)C` [2,2,4-Trimethylpentane], the “% Cross-Reactivity” value in test [1] (setting [3]) was less than 1%. Also, the ED50 entry in test [1] is reported as “Negative”.

As to `CCCCCCCCC` [n-Nonane], the “% Cross-Reactivity” value in test [1] (setting [3]) is reported as less than 1%. In addition, the ED50 result in test [1] is on record as “Negative”.

Regarding `C1CCCCC1` [Cyclohexane], the “% Cross-Reactivity” value in test [1] (setting [3]) is reported as 7%. In addition, the ED50 in test [1] (10 min) was 6,636 ppb.

For `CCc1ccccc1` [Ethylbenzene], the “% Cross-Reactivity” value in test [1] is listed as 275%. The ED50 in test [1] (10 min) was 176 ppb.

In the case of Methylnaphthalene, the “% Cross-Reactivity” value in test [1] (setting [3]) is given as 780%. For the same molecule, the ED50 in test [1] (10 min) was 62 ppb. The Conc. where positive in test [2] is on record as 10 ppm.

With `CCCCC(C)C` [2-Methylhexane], the “% Cross-Reactivity” value in test [1] (setting [3]) came to 43%. Also, the ED50 in test [1] (10 min) was 1,113 ppb.

Regarding `CCCCCCCCCCCCCC` [n-Tetradecane], the “% Cross-Reactivity” value in test [1] (setting [3]) is given as less than 1%. In addition, the ED50 result in test [1] is on record as “Negative”.

As for `CCCCCCC` [Heptane], in test [2], the Conc. where positive worked out at 300 ppm.

As for `CCCCCCCCCCC` [Undecane], the Conc. where positive in test [2] is given as > 10,000 ppm.

These data come from patent publication US5691148A, “Petroleum immunoassay method, its components and a kit for use in performing the same” (ENSYS, Inc., priority 1994, dated 1997).
